In patent US10456407B2, “Combination therapy for treating cancer” (Epizyme, Inc., priority 2015, dated 2019):

System: WSU-DLCL2 cells
Test: RT2 Glucocorticoid signaling PCR array, WSU-DLCL2 (WSU) cell line (Table 4c)
Assay type: cell-based

SMILES: CCN(c1cc(-c2ccc(CN3CCOCC3)cc2)cc(C(=O)NCc2c(C)cc(C)[nH]c2=O)c1C)C1CCOCC1 [Compound 44]
- Ct Values, MERTK (gene MERTK): 31.323
- ΔCT (B2M), MERTK (gene MERTK): 11.638
- Ct Values, MT2A (gene MT2A): 23.499
- ΔCT (B2M), MT2A (gene MT2A): 3.814
- ΔΔCT, MT2A (gene MT2A, compared to DMSO): −1.453
- Ct Values, NFKBIA (gene NFKBIA): 23.807
- ΔCT (B2M), NFKBIA (gene NFKBIA): 4.122
- ΔΔCT, NFKBIA (gene NFKBIA, compared to DMSO): 1.201
- Ct Values, NR3C1 (gene NR3C1): 23.121
- ΔCT (B2M), NR3C1 (gene NR3C1): 3.436
- ΔΔCT, NR3C1 (gene NR3C1, compared to DMSO): −0.364
- Ct Values, PDCD7 (gene PDCD7): 24.740
- ΔCT (B2M), PDCD7 (gene PDCD7): 5.055
- ΔΔCT, PDCD7 (gene PDCD7, compared to DMSO): 0.326
- Ct Values, PDP1 (gene PDP1): 25.226
- ΔCT (B2M), PDP1 (gene PDP1): 5.541
- ΔΔCT, PDP1 (gene PDP1, compared to DMSO): −0.380
- Ct Values, PER1 (gene PER1): 25.820
- ΔCT (B2M), PER1 (gene PER1): 6.135
- ΔΔCT, PER1 (gene PER1, compared to DMSO): 0.476
- Ct Values, PER2 (gene PER2): 24.837
- ΔCT (B2M), PER2 (gene PER2): 5.152
- ΔΔCT, PER2 (gene PER2, compared to DMSO): 0.151
- Ct Values, PIK3R1 (gene PIK3R1): 24.332
- ΔCT (B2M), PIK3R1 (gene PIK3R1): 4.647
- ΔΔCT, PIK3R1 (gene PIK3R1, compared to DMSO): 0.363
- Ct Values, PLEKHF1 (gene PLEKHF1): 28.660
- ΔCT (B2M), PLEKHF1 (gene PLEKHF1): 8.975
- ΔΔCT, PLEKHF1 (gene PLEKHF1, compared to DMSO): 1.220
- Ct Values, POU2F1 (gene POU2F1): 24.671
- ΔCT (B2M), POU2F1 (gene POU2F1): 4.986
- ΔΔCT, POU2F1 (gene POU2F1, compared to DMSO): 0.202
- Ct Values, POU2F2 (gene POU2F2): 22.678
- ΔCT (B2M), POU2F2 (gene POU2F2): 2.993
- ΔΔCT, POU2F2 (gene POU2F2, compared to DMSO): −0.680
- Ct Values, RASA3 (gene RASA3): 23.208
- ΔCT (B2M), RASA3 (gene RASA3): 3.523
- ΔΔCT, RASA3 (gene RASA3, compared to DMSO): −0.979
- Ct Values, RGS2 (gene RGS2): 24.869
- ΔCT (B2M), RGS2 (gene RGS2): 5.184
- ΔΔCT, RGS2 (gene RGS2, compared to DMSO): 1.732
- Ct Values, RHO8 (gene RHO8): 27.234
- ΔCT (B2M), RHO8 (gene RHO8): 7.549
- ΔΔCT, RHO8 (gene RHO8, compared to DMSO): −2.725
- Ct Values, RPLP0 (gene RPLP0): 15.651
- ΔCT (B2M), RPLP0 (gene RPLP0): −4.004
- Ct Values, SESN1 (gene SESN1): 25.215
- ΔCT (B2M), SESN1 (gene SESN1): 5.530
- ΔΔCT, SESN1 (gene SESN1, compared to DMSO): −3.709
- Ct Values, SGK1 (gene SGK1): 28.624
- ΔCT (B2M), SGK1 (gene SGK1): 8.939
- ΔΔCT, SGK1 (gene SGK1, compared to DMSO): 2.810
- Ct Values, SLC10A6 (gene SLC10A6): 35.684
- ΔCT (B2M), SLC10A6 (gene SLC10A6): 15.999
- ΔΔCT, SLC10A6 (gene SLC10A6, compared to DMSO): −1.168
- Ct Values, SLC19A2 (gene SLC19A2): 26.125
- ΔCT (B2M), SLC19A2 (gene SLC19A2): 6.440
- ΔΔCT, SLC19A2 (gene SLC19A2, compared to DMSO): −0.748
- Ct Values, SLC22A5 (gene SLC22A5): 26.640
- ΔCT (B2M), SLC22A5 (gene SLC22A5): 6.995
- ΔΔCT, SLC22A5 (gene SLC22A5, compared to DMSO): −2.496
- Ct Values, SNTA1 (gene SNTA1): 24.181
- ΔCT (B2M), SNTA1 (gene SNTA1): 4.496
- ΔΔCT, SNTA1 (gene SNTA1, compared to DMSO): −0.492
- Ct Values, SPHK1 (gene SPHK1): 29.333
- ΔCT (B2M), SPHK1 (gene SPHK1): 9.648
- ΔΔCT, SPHK1 (gene SPHK1, compared to DMSO): −0.545
- Ct Values, SPSB1 (gene SPSB1): 26.952
- ΔCT (B2M), SPSB1 (gene SPSB1): 7.267
- ΔΔCT, SPSB1 (gene SPSB1, compared to DMSO): −2.896
- Ct Values, STAT5A (gene STAT5A): 25.495
- ΔCT (B2M), STAT5A (gene STAT5A): 5.810
- ΔΔCT, STAT5A (gene STAT5A, compared to DMSO): −0.307
- Ct Values, STAT5B (gene STAT5B): 23.453
- ΔCT (B2M), STAT5B (gene STAT5B): 3.768
- ΔΔCT, STAT5B (gene STAT5B, compared to DMSO): −0.196
- Ct Values, TBL1XR1 (gene TBL1XR1): 22.111
- ΔCT (B2M), TBL1XR1 (gene TBL1XR1): 2.426
- ΔΔCT, TBL1XR1 (gene TBL1XR1, compared to DMSO): 0.274
- Ct Values, TNF (gene TNF): 25.079
- ΔCT (B2M), TNF (gene TNF): 5.394
- ΔΔCT, TNF (gene TNF, compared to DMSO): 1.150
- Ct Values, TNFAIP3 (gene TNFAIP3): 26.903
- ΔCT (B2M), TNFAIP3 (gene TNFAIP3): 7.218
- ΔΔCT, TNFAIP3 (gene TNFAIP3, compared to DMSO): 1.722
- Ct Values, TSC22D3 (gene TSC22D3): 25.390
- ΔCT (B2M), TSC22D3 (gene TSC22D3): 5.705
- ΔΔCT, TSC22D3 (gene TSC22D3, compared to DMSO): −0.359
- Ct Values, USP2 (gene USP2): 21.903
- ΔCT (B2M), USP2 (gene USP2): 2.218
- ΔΔCT, USP2 (gene USP2, compared to DMSO): −0.978
- Ct Values, USPS4 (gene USPS4): 26.807
- ΔCT (B2M), USPS4 (gene USPS4): 7.122
- ΔΔCT, USPS4 (gene USPS4, compared to DMSO): 0.023
- Ct Values, VDR (gene VDR): 27.293
- ΔCT (B2M), VDR (gene VDR): 7.608
- ΔΔCT, VDR (gene VDR, compared to DMSO): −3.044
- Ct Values, VLDLR (gene VLDLR): 32.346
- ΔCT (B2M), VLDLR (gene VLDLR): 12.661
- ΔΔCT, VLDLR (gene VLDLR, compared to DMSO): 3.859
- Ct Values, ZFP36 (gene ZFP36): 25.541
- ΔCT (B2M), ZFP36 (gene ZFP36): 5.856
- ΔΔCT, ZFP36 (gene ZFP36, compared to DMSO): 0.939
- Ct Values, ZHX3 (gene ZHX3): 24.831
- ΔCT (B2M), ZHX3 (gene ZHX3): 5.146
- ΔΔCT, ZHX3 (gene ZHX3, compared to DMSO): −1.178
- Ct Values, ZNF281 (gene ZNF281): 23.913
- ΔCT (B2M), ZNF281 (gene ZNF281): 4.228
- ΔΔCT, ZNF281 (gene ZNF281, compared to DMSO): −0.329
